Patent US20120114583A1, “USE OF DIHYDROQUERCETIN AND AT LEAST ONE AMINO ACID TO POSITIVELY INFLUENCE THE NATURAL PIGMENTATION PROCESS” (Henkel AG & Co. KGaA, priority 2009, published 2012)

Columns and labels:
Format in all cases: cell-based
[1] = test system: MCR1 (melanocortin receptor 1); experiment: Differential gene expression of MCR1 by quantitative RT-PCR in organotypical hair follicle cell cultures; conditions: for MCR1 expression, Mean: 48 h, dermal papilla cell 3D cultures, untreated control = 1
From the text: (§1) The ligands involved in melanogenesis, such as SCF or alpha-MSH (melanocyte stimulating hormone alpha) bind to different receptors, through which the corresponding signal is transmitted into the cell interior. The receptor for SCF is ckit, the receptor for alpha-MSH is MCR-1 (melanocortin receptor 1). Substances that bring about a change in the expression of MCR-1 and/or ckit can influence melanogenesis. If an induction (up-regulation or stimulation) of the gene expression of the corresponding receptors occurs, melanogenesis is assumed to be stimulated. Differential gene expression was determined by means of quantitative RT-PCR. After preparing three-dimensional organotypical hair follicle cell cultures from dermal papilla cells on microcarriers, they were incubated for 48 h with dihydroquercetin in two different concentrations. In order to perform PCR the RNA was first isolated from the organotypical cell cultures with the aid of an RNeasy Mini Kit from Qiagen and transcribed into cDNA by reverse transcription. In the subsequent PCR reaction, which is performed for each gene with the aid of gene-specific primers and which serves to amplify the required gene sections, the formation of PCR products is detected online via a fluorescence signal. The fluorescence signal is proportional to the amount of PCR product formed. The stronger the expression of a particular gene, the greater the amount of PCR product formed and the higher the fluorescence signal. To quantify the gene expression the untreated control is set to 1 and the expression of the gene to be determined is referenced thereto (x-times expression). […] Values greater than or equal to the 1.5 times expression or less than or equal to the 0.7 times expression of the untreated control are classed as being expressed in a tangentially differential manner.

[2] = test system: hair follicle equivalents; experiment: Melanin content in hair follicle equivalents; conditions: for Melanin content d4 Mean: day 4; for Melanin content d7 Mean: day 7, untreated control 181
Experimental: In order to assess the melanin content, three-dimensional organotypical hair follicle cell cultures prepared from dermal papilla cells, hair follicle melanocytes and outer root sheath keratinocytes were treated with dihydroquercetin (10 μM and 100 μM) for 7 days. Untreated cell cultures served as a control. After 4 and 7 days respectively, the hair follicle equivalents were homogenized and the melanin extracted with NaOH (1M)+10% DMSO at 100° C. for 45 min. Aliquots of the specimens were then transferred to a 96-well plate and the extinction was measured at 492 nm. The rise in the melanin content from day 0 to day 7 was evaluated. All values were referenced to the untreated control on day 7 (=100%).

gp100 = experiment: Differential gene expression of gp100 by quantitative RT-PCR in organotypical hair follicle cell cultures; conditions: for gp100 expression, Mean: 48 h, dermal papilla cell 3D cultures, untreated control = 1
Experimental: Gp 100 is a protein that occurs in the membrane of melanosomes and stabilizes them. Since more melanin is produced in the cells following application of substances that positively influence melanogenesis, an increase in the melanosomes necessary for transport also occurs. A substance that induces the gene expression of gp100 is therefore a pigmentation-stimulating active ingredient. Differential gene expression was determined by means of quantitative RT-PCR. After preparing three-dimensional organotypical hair follicle cell cultures from dermal papilla cells on microcarriers, they were incubated for 48 h with dihydroquercetin in two different concentrations. In order to perform PCR the RNA was first isolated from the organotypical cell cultures with the aid of an RNeasy Mini Kit from Qiagen and transcribed into cDNA by reverse transcription. In the subsequent PCR reaction, which is performed for each gene with the aid of gene-specific primers and which serves to amplify the required gene sections, the formation of PCR products is detected online via a fluorescence signal. The fluorescence signal is proportional to the amount of PCR product formed. The stronger the expression of a particular gene, the greater the amount of PCR product formed and the higher the fluorescence signal. To quantify the gene expression the untreated control is set to 1 and the expression of the gene to be determined is referenced thereto (x-times expression). […] Values greater than or equal to the 1.5 times expression or less than or equal to the 0.7 times expression of the untreated control are classed as being expressed in a tangentially differential manner.

ckit = experiment: Differential gene expression of ckit by quantitative RT-PCR in organotypical hair follicle cell cultures; conditions: for ckit expression, Mean: 48 h, dermal papilla cell 3D cultures, untreated control = 1
From the text: as §1

O=C1c2c(O)cc(O)cc2OC(c2ccc(O)c(O)c2)C1O (stereo not drawn) [Dihydroquercetin, 3,3′,4′,5,7-pentahydroxyflavanone]
MCR1 expression, Mean ([1]; 10 μM): 2.56 x-times expression
MCR1 expression (in words) ([1]; 10 μM, significantly differential = >= 1.8 times or <= 0.5 times untreated control): expressed in a significantly differential manner
MCR1 expression (in words) ([1]; 100 μM): induced
MCR1 expression, Mean ([1]; 100 μM): 5.17 x-times expression
Melanin content d4 Mean ([2]; 10 μM): 100%
Melanin content d7 Mean ([2]; 10 μM): 254%
Melanin content d4 Mean ([2]; 100 μM): 100%
Melanin content d7 Mean ([2]; 100 μM): 161%
melanin synthesis in comparison to the control (in words) ([2]; both concentration levels tested (10 μM and 100 μM)): increased markedly
gp100 expression, Mean (gp100; 10 μM): 0.89 x-times expression
gp100 expression (in words) (gp100; 100 μM): induced
gp100 expression, Mean (gp100; 100 μM): 3.48 x-times expression
ckit expression, Mean (ckit; 10 μM): 1.32 x-times expression
ckit expression (in words) (ckit; 100 μM): induced
ckit expression, Mean (ckit; 100 μM): 3.55 x-times expression
